# Source: patent US4288609A, “Quaternary ammonium derivatives of adamantane with antimicrobic activity” (priority 1976, dated 1981)
# Like-named read-outs stand apart in the source and are kept apart here.
# Key:
# Staph.Aureus Tour = test: M.I.C. in vitro, gram+ Staph. Aureus (Table 1); format: cell-based, Staphylococcus Aureus; conditions: Staphylococcus aureus, read-out: M.I.C.
# Description: (§1) The method for evaluating the activity in vitro against bacteria, fungi and protozoa consists in introducing calculated quantities of the substance, the activity of which it is desired to test, into culture media already inoculated with a predetermined number of test germs.
# (§2) After 24 or 48 hours of incubation at 30° or 37° C., according to the micro-organism being tested, it is possible to evaluate the growth of the same in the culture broth; in this manner the minimum concentration (M.I.C.) which inhibits the growth of the micro-organisms in vitro is determined.
# (§3) In table 1 there are recorded the M.I.C. values in γ/ml of the products subject of the present invention, against certain gram+ and gram- bacterial strains, some of which are pathogenic towards human beings.
# [1] = tested on: Candida Pseudotrop. ATCC 2512; test: MIC yeasts, Candida pseudotropicalis (Table 2); format: cell-based; conditions: Sabourand broth
# Description: as §1, §2
# (§4) Inoculation with Candida albicans or Candida pseudotropicalis was made by diluting cultures grown for 24 h at 30° C. (cellular density inoculated 10^3 /ml).
# (§5) For the fungi Sabourand broth was used as a culture medium, whilst for the protozoa Kupferberg Trichomonas broth with 5% of horse serum was used.
# Trich. Foetus ISM 66/23 = test: MIC protozoa, Trichomonas foetus (Table 2); format: cell-based; conditions: +10% serum (head), Kupferberg Trichomonas broth with 5% of horse serum
# Description: as §1, §2
# (§6) Inoculation with Trichomonas vaginalis and Trichomonas foetus, obtained from cultures transplanted every other day to make them lively, was effected in a ratio of 3.5% of the volume of medium used.
# as §5
# [2] = tested on: Streptococ. Henclyt. 0203; test: M.I.C. in vitro, gram+ Streptococ. Henclyt. (Table 1); format: cell-based; conditions: for MIC: read-out: M.I.C.
# Description: as §1, §2, §3
# Esch. Coli. SKF 12140 = test: M.I.C. in vitro, gram- Esch. Coli (Table 1); format: cell-based, Escherichia Coli; conditions: Escherichia coli, read-out: M.I.C.
# Description: as §1, §2, §3
# [3] = Acute oral toxicity in mice (Table 4); conditions: mouse, in vivo, po, LD50, oral, mice, 14 days
# Description: The substances were administered orally to groups of 10 female mice CF1 of average weight of about 20 grams, in aqueous solution and in such way that the total volume administered would be in each case 1 ml/100 g of weight.
# [4] = tested on: Trich. Vaginalis ISM 66/22; test: MIC protozoa, Trichomonas vaginalis (Table 2); format: cell-based; conditions: Trichomonas vaginalis, +10% serum (head); Kupferberg Trichomonas broth with 5% of horse serum; read-out: MIC
# Description: as §1, §2, §6, §5
# Candida Albic. SKF 2270 = test: MIC yeasts, Candida albicans (Table 2); format: cell-based; conditions: Sabourand broth
# Description: as §1, §2, §4, §5
# Diplococcus Pneum. ISM = test: M.I.C. in vitro, gram+ Diplococcus Pneum. (Table 1); format: cell-based; conditions: read-out: M.I.C.
# Description: as §1, §2, §3
# Proteus Vulc. ATCC 881 = test: M.I.C. in vitro, gram- Proteus Vulc. (Table 1); format: cell-based; conditions: read-out: M.I.C.
# Description: as §1, §2, §3
# [5] = tested on: Trych. Mentagr. 1st.Pastuer; test: MIC mildews, Trichophyton mentagrophytes (Table 2); format: cell-based; conditions: Sabourand broth
# Description: as §1, §2
# (§7) Inoculation with Trichophyton mentagrophytes and Microsporum canis was effected in a ratio of 1% of the volume of medium used.
# as §5
# Pseudom.Aer. ATCC 1014 = test: M.I.C. in vitro, gram- Pseudom. Aer. (Table 1); format: cell-based, Pseudomonas Aeruginosa; conditions: for MIC: Pseudomonas aeruginosa, read-out: M.I.C.
# Description: as §1, §2, §3
# Klens. Pneum. ISM = test: M.I.C. in vitro, gram- Klens. Pneum. (Table 1); format: cell-based; conditions: read-out: M.I.C.
# Description: as §1, §2, §3
# [6] = tested on: Nicrosporum Canis ATCC 11621; test: MIC mildews, Microsporum canis (Table 2); format: cell-based; conditions: Sabourand broth
# Description: as §1, §2, §7, §5
# [7] = Candida, ATCC2512, +10% serum, read-out: MIC
# [8] = Candida, ATCC2512, without serum, read-out: MIC
# [9] = Tritrichomonas foetus, read-out: MIC
# [10] = Candida, +10% serum, read-out: MIC
# [11] = Candida, without serum, read-out: MIC
# [12] = Trichophyton mentagrophytes, +10% serum, read-out: MIC
# [13] = Trichophyton mentagrophytes, without serum, read-out: MIC
# [14] = Microsporum canis, ATCC11621, +10% serum, read-out: MIC
# [15] = Microsporum canis, ATCC11621, without serum, read-out: MIC
SMILES,MIC (Staph.Aureus Tour; +10% serum),MIC (Staph.Aureus Tour; without serum),"MIC [1, 7]","MIC [1, 8]",MIC (Trich. Foetus ISM 66/23; [9]),MIC ([2]; +10% serum),MIC ([2]; without serum),MIC (Esch. Coli. SKF 12140; +10% serum),MIC (Esch. Coli. SKF 12140; without serum),LD50 at 336 h [3],MIC [4],MIC (Candida Albic. SKF 2270; [10]),MIC (Candida Albic. SKF 2270; [11]),MIC (Diplococcus Pneum. ISM; +10% serum),MIC (Diplococcus Pneum. ISM; without serum),MIC (Proteus Vulc. ATCC 881; +10% serum),MIC (Proteus Vulc. ATCC 881; without serum),"MIC (Pseudom.Aer. ATCC 1014; ATCC1014, +10% serum)",MIC (Klens. Pneum. ISM; +10% serum),MIC (Klens. Pneum. ISM; without serum),further results
CCCCCCCCCCC[N+](C)(C)CCOC(=O)C12CC3CC(CC(C3)C1)C2 [Example 3],5 µg/mL,< 0.1 µg/mL,50 µg/mL,< 0.1 µg/mL,5 µg/mL,9.2 µg/mL,< 0.1 µg/mL,100 µg/mL,2 µg/mL,745 mg/kg,5 µg/mL,20 µg/mL,0.5 µg/mL,5 µg/mL,0.5 µg/mL,100 µg/mL,5 µg/mL,100 µg/mL,100 µg/mL,5 µg/mL,"MIC [5, 12]: 10 µg/mL; MIC [5, 13]: 0.1 µg/mL; MIC (Pseudom.Aer. ATCC 1014; ATCC1014, without serum): 20 µg/mL; MIC [6, 14]: 10 µg/mL; MIC [6, 15]: < 0.1 µg/mL"
"CCCCCCCCCCCC[N+](CC)(CC)CCNC(=O)C12CC3CC(CC(C3)C1)C2 [Example 12, n-Dodecyl-diethyl-(1-adamantane-carbonylamido)-ethylammonium bromide]",10 µg/mL,0.2 µg/mL,50 µg/mL,0.1 µg/mL,5 µg/mL,5 µg/mL,0.2 µg/mL,100 µg/mL,10 µg/mL,890 mg/kg,5 µg/mL,20 µg/mL,1 µg/mL,20 µg/mL,2 µg/mL,100 µg/mL,5 µg/mL,100 µg/mL,100 µg/mL,5 µg/mL,"MIC [5, 12]: 20 µg/mL; MIC [5, 13]: 0.2 µg/mL; MIC (Pseudom.Aer. ATCC 1014; ATCC1014, without serum): 20 µg/mL; MIC [6, 14]: 20 µg/mL; MIC [6, 15]: 0.5 µg/mL"
"CCCCCCCCCC[N+](CC)(CC)CCNC(=O)C12CC3CC(CC(C3)C1)C2 [Example 9, n-Decyl-diethyl-(1-adamantane-carbonylamido)-ethylammonium bromide]",5 µg/mL,0.1 µg/mL,50 µg/mL,,,,,50 µg/mL,5 µg/mL,980 mg/kg,5 µg/mL,,1 µg/mL,5 µg/mL,1 µg/mL,100 µg/mL,5 µg/mL,50 µg/mL,50 µg/mL,10 µg/mL,MIC ([1]; without serum): 0.2 µg/mL; MIC (Trich. Foetus ISM 66/23): 2 µg/mL; M.I.C. ([2]; +10% serum): 0.5 µg/mL; M.I.C. ([2]; without serum): 0.1 µg/mL; MIC (Candida Albic. SKF 2270; +10% serum): 20 µg/mL; MIC ([5]; +10% serum): 10 µg/mL; MIC ([5]; without serum): 0.2 µg/mL; M.I.C. (Pseudom.Aer. ATCC 1014; without serum): 10 µg/mL; MIC ([6]; +10% serum): 20 µg/mL; MIC ([6]; without serum): 0.2 µg/mL
"CCCCCCCCCC[N+](CC)(CC)CCOC(=O)C12CC3CC(CC(C3)C1)C2 [Example 5, n-Decyl-diethyl-(1-adamantane-carboxy)-ethyl-ammonium bromide]",5 µg/mL,< 0.1 µg/mL,50 µg/mL,0.1 µg/mL,5 µg/mL,0.5 µg/mL,< 0.1 µg/mL,100 µg/mL,5 µg/mL,750 mg/kg,10 µg/mL,50 µg/mL,0.5 µg/mL,10 µg/mL,0.5 µg/mL,100 µg/mL,10 µg/mL,100 µg/mL,100 µg/mL,10 µg/mL,"MIC [5, 12]: 10 µg/mL; MIC [5, 13]: 0.1 µg/mL; MIC (Pseudom.Aer. ATCC 1014; ATCC1014, without serum): 50 µg/mL; MIC [6, 14]: 20 µg/mL; MIC [6, 15]: 0.1 µg/mL"
"CCCCCCCCCCC[N+](CC)(CC)CCNC(=O)C12CC3CC(CC(C3)C1)C2 [Example 11, n-Undecyl-diethyl-(1-adamantane-carbonylamido)-ethylammonium bromide]",10 µg/mL,< 0.1 µg/mL,20 µg/mL,< 0.1 µg/mL,5 µg/mL,2 µg/mL,< 0.1 µg/mL,100 µg/mL,5 µg/mL,935 mg/kg,5 µg/mL,20 µg/mL,1 µg/mL,5 µg/mL,1 µg/mL,100 µg/mL,10 µg/mL,100 µg/mL,100 µg/mL,5 µg/mL,"MIC [5, 12]: 10 µg/mL; MIC [5, 13]: 0.1 µg/mL; MIC (Pseudom.Aer. ATCC 1014; ATCC1014, without serum): 20 µg/mL; MIC [6, 14]: 20 µg/mL; MIC [6, 15]: 0.2 µg/mL"
"CCCCCCCCCCCC[N+](CC)(CC)CCOC(=O)C12CC3CC(CC(C3)C1)C2 [Example 6, n-Dodecyl-diethyl-(1-adamantane-carboxy)-ethyl-ammonium bromide]",10 µg/mL,0.1 µg/mL,50 µg/mL,0.5 µg/mL,5 µg/mL,2 µg/mL,0.5 µg/mL,100 µg/mL,10 µg/mL,935 mg/kg,10 µg/mL,50 µg/mL,2 µg/mL,5 µg/mL,2 µg/mL,100 µg/mL,20 µg/mL,100 µg/mL,100 µg/mL,10 µg/mL,"MIC [5, 12]: 20 µg/mL; MIC [5, 13]: 0.5 µg/mL; MIC (Pseudom.Aer. ATCC 1014; ATCC1014, without serum): 50 µg/mL; MIC [6, 14]: 50 µg/mL; MIC [6, 15]: 0.5 µg/mL"
CCCCCCCCCC[N+](C)(C)CCNC(=O)C12CC3CC(CC(C3)C1)C2 [Example 7],5 µg/mL,0.2 µg/mL,50 µg/mL,0.2 µg/mL,2 µg/mL,2 µg/mL,0.2 µg/mL,100 µg/mL,10 µg/mL,955 mg/kg,5 µg/mL,50 µg/mL,5 µg/mL,10 µg/mL,0.5 µg/mL,100 µg/mL,10 µg/mL,100 µg/mL,50 µg/mL,10 µg/mL,"MIC [5, 12]: 20 µg/mL; MIC [5, 13]: 0.5 µg/mL; MIC (Pseudom.Aer. ATCC 1014; ATCC1014, without serum): 50 µg/mL; MIC [6, 14]: 20 µg/mL; MIC [6, 15]: 0.5 µg/mL"
